# Assay results: BindingDB's records for doi:10.1021/bi00331a002 (University of Minnesota, 1985)
# pKi: −log10 of the molar value.
# Target: Glutamate receptor ionotropic, NMDA 1 (Rattus norvegicus, UniProt P35439)
compound,measurement,value
N[C@H](CC(=O)O)C(=O)O,pKi,< 5.00
N[C@@H](CCP(=O)(O)O)C(=O)O [2-Amino-4-phosphono-butyric acid],pKi,5.82
"N[C@@H](Cn1oc(=O)[nH]c1=O)C(=O)O [2-amino-3-(3,5-dioxo[1,2,4]oxadiazolidin-2-yl)propionic acid]",pKi,6.59
CP(=O)(O)CCC(N)C(=O)O (stereo not drawn) [2-amino-4-(methylphosphino) butanoic acid],pKi,5.42
N[C@H](CCCP(=O)(O)O)C(=O)O [CB3371309],pKi,< 5.00
N[C@H](CCP(=O)(O)O)C(=O)O [D-AP4],pKi,< 5.00
"N[C@@H](CC(=O)O)C(=O)O [L-Aspartic acid, 2]",pKi,5.10
CC(C[C@H](N)C(=O)O)P(=O)(O)O (stereo partly drawn) [gamma-methyl-APB],pKi,5.07
